Assay results published in article PMC9321663, “The DevTox Germ Layer Reporter Platform: An Assay Adaptation of the Human Pluripotent Stem Cell Test” (Toxics, 2022).
Entries after “also recorded” stand apart in the source; their conditions may differ. Read-outs that look alike come from different tables or passages of the source.

What was measured:
[1] = tested on: SOX17 (endoderm marker) in RUES2-GLR cells; experiment: DevTox GLR-Endo assay: decrease in percent SOX17-positive cells (AEID 3094, Sox17_dn); details: for Hit Call: Table S2, SOX17-positive cells, cutoff 3*bmad; for DevTox % Max Inhibition: Table S2, percent SOX17-positive cells relative to DMSO; for DevTox ACC: Table S2, percent SOX17-positive cells; for HIT−CALL: tcpl plot AEID3094, COFF 20.3; for MAX_MEAN: tcpl plot AEID3094, maximum mean response; for MAX_MED: tcpl plot AEID3094, maximum median response; for hit call designation (in words): DevTox GLR-Endo prediction against developmental toxicant classification
Procedure, shortened: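 Readouts are loss of SOX17-positive fraction and reduced cell number in endoderm-differentiating RUES2-GLR cells after 48 h of chemical exposure. Controls: undifferentiated and differentiated cells, 0.2% DMSO, and 1 µM SB431542; at least four biological replicates.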

RUES2-GLR cells = experiment: DevTox GLR-Endo assay: decrease in total cell count, cytotoxicity (AEID 3098, CellCount_dn); details: for Cell Count % Max Inhibition: Table S2, cell count relative to DMSO; for Emax: Homo sapiens, read-out: Cell Count % Max Inhibition
[2] = tested on: SOX17 (endoderm marker) in RUES2-GLR cells; experiment: DevTox GLR-Endo assay: increase in percent SOX17-positive cells (AEID 3093, Sox17_up); type: cell-based, human; details: for HIT−CALL: tcpl plot AEID3093, COFF 20.3; for Emax: Homo sapiens
Protocol: (§1) The total test chemical incubation period was 48 h.
(§2) (Supplementary Materials).

[3] = tested on: BRA (mesoderm marker) in RUES2-GLR cells; experiment: DevTox GLR-Endo assay: increase in percent BRA-positive cells (AEID 3096, Bra_up); type: cell-based, human; details: for HIT−CALL: tcpl plot AEID3096, COFF 0.774; for MAX_MEAN: tcpl plot AEID3096, maximum mean response; for MAX_MED: tcpl plot AEID3096, maximum median response
Protocol: as §1, §2

[4] = tested on: o/c ratio in H9 embryonic stem cells; details: Teratogen Index, cited from earlier work; for quickPredict TI: o/c ratio
H9 embryonic stem cells = details: cited from earlier work
[5] = cited from earlier work; for Development Toxicant Classification: Table S2; for Classification: developmental toxicant classification (Teratogen / Non-Teratogen) of reference and training chemicals, ref DOI per chemical: 10.1093/toxsci/kft239, 10.1093/toxsci/kfaa014, 10.1177/026119290203000204, 10.1038/s41598-020-59542-x; for DT Class.: developmental toxicant classification, chemicals common with quickPredict
[6] = tested on: SOX2 (ectoderm and pluripotency marker) in RUES2-GLR cells; experiment: DevTox GLR-Endo assay: increase in percent SOX2-positive cells (AEID 3095, Sox2_up); details: for MAX_MEAN: tcpl plot AEID3095, maximum mean response; for MAX_MED: tcpl plot AEID3095, maximum median response; for AC50 / Emax: Homo sapiens; for AC50: read-out: ga (winning model); for Emax: read-out: tp (winning model);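 as to all read-outs here: cells exposed to test chemicals for 48 h in total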
Protocol: RUES2-GLR cells were seeded 24 h prior to differentiation initiation into vitronectin-coated 384-well CellCarrier Ultra plates (10.6 mm^2/well) (Perkin Elmer, Waltham, MA, USA). Vitronectin (0.5 µg/cm^2)-coated plates were prepared and stored at 4 °C, wrapped in parafilm, for less than seven days and incubated at room temperature for one hour prior to cell seeding. […] Cells were dispensed into 20 µL coating solution using a Certus FLEX Micro Dispenser (Fritz Gyger, Gwatt, Switzerland) with a 0.45 µm valve to a final volume of 100 µL and density of 2.8 × 10^3 cells per well.
Following a 24 h post-seeding incubation period (Time = 0 h) (Figure 3A), directed endoderm differentiation was initiated with the PSC Definitive Endoderm Induction kit (Gibco, Waltham, MA, USA). […] A target dilution series (0.002–200 µM) was generated by dispensing variable nanoliter volumes of test chemical and backfilling with a complementary volume of DMSO using Echo Cherry Pick software (v.1.6.2). Wells were backfilled with 50 µL of induction medium using a Certus FLEX Micro Dispenser with 0.45 µm valves. Test compound treatment plates were mixed on a Multi-Microplate Genie mixer at 700 rpm for 10 min and subsequently incubated for two hours in a humidified atmosphere at 37 °C with 5% CO2. Each chemical treatment (0 h–Medium A; 24 h–Medium B) were prepared the day of treatment. At 0 h, cell culture medium was aspirated from the assay plate at a rate of 1 µL/s and 40 µL of Medium A ± test chemical applied using a CyBio FeliX automated liquid handler (Analytik Jena, Jena, Germany). At 24 h, conditioned cell culture medium was aspirated and 40 µL of Medium B ± test chemical was applied. At 48 h, cells were prepared for high-content image acquisition by fixation and nuclear staining. The total test chemical incubation period was 48 h. For fixation, a 4% paraformaldehyde (PFA) solution was achieved by adding 40 µL of 8% PFA directly to cell culture medium using a CyBio FeliX liquid handler. […] Following an additional 30 min incubation period at room temperature, staining solution was aspirated, 50 µL of DPBS was added, and plate sealed with MicroAmp Optical Adhesive Film (Applied Biosystems, Waltham, MA, USA).
Images were acquired within 12 h post-fixation using an Opera Phenix High-Content Screening System (Perkin Elmer, Waltham, MA, USA). […] Cell identification and mean biomarker fluorescent intensities were calculated using Harmony image analysis software (Perkin Elmer, Waltham, MA, USA). Cell nuclei were identified using the object classifying algorithm C of the software with border objects excluded using the “Remove Border Objects” feature. Mean cell biomarker intensity statistics were gathered from each object and exported for further analysis using a custom script in Python version 3.7.4 [61] […] For each plate, pluripotent-negative control wells were used to establish baseline intensity values and a cutoff threshold for determining SOX17 and BRA biomarker-positive cells. Endoderm differentiated positive control wells were used to establish baseline intensity values and a cutoff threshold for SOX2-positive cells. Cells with a mean intensity five times the baseline median absolute deviation (5*bmad) above the median cell intensity for plate-based control population technical replicates were considered positive. Well-based cell counts, reflected by the sum of total counted objects from all fields, were used to calculate the percent responders for each respective biomarker and evaluate cytotoxicity. Well-level results were exported for data modeling in the ToxCast Pipeline.
The ToxCast Pipeline R package (tcpl v.2.0.2) was used to normalize, fit, and qualify concentration-response screening data [63].

[7] = tcpl plot AEID3093, maximum mean response
[8] = tcpl plot AEID3093, maximum median response
[9] = concentration at cell viability cutoff
[10] = Homo sapiens, read-out: DevTox % Max Inhibition
[11] = Homo sapiens, read-out: MAX_MEAN
[12] = Homo sapiens, read-out: MAX_MED
[13] = tcpl plot AEID3093, maximum mean response, read-out: MAX_MEAN
[14] = tcpl plot AEID3093, maximum median response, read-out: MAX_MED

SMILES | Hit Call [1] | DevTox ACC ([1]; 48 h exposure) [µM] | HIT−CALL [1] | HIT−CALL [2] | HIT−CALL [3] | MAX_MEAN [3] [Percent Activity] | MAX_MED [3] [Percent Activity] | quickPredict TI [4] [µM] | Development Toxicant Classification [5] | Classification [5] | DT Class. [5] | MAX_MEAN [6] [Percent Activity] | MAX_MED [6] [Percent Activity] | quickPredict CV (H9 embryonic stem cells; [9]) [µM] | Emax [1, 10] [%] | Emax [1, 11] [%] | Emax [1, 12] [%] | Emax (RUES2-GLR cells) [%] | Cell Count ACC (RUES2-GLR cells; human, 48 h) [µM] | Emax [2, 13] [%] | further results
CC(O)CO (stereo not shown) [1,2-Propylene glycol] | Negative | >200 | 0 | 0 | 0 | 0.919 | 0.955 | 327552 | Negative | Non-Teratogen | Neg | 0.616 | 0.577 |  |  |  |  |  |  |  | DevTox % Max Inhibition [1]: 5.484%; MAX_MEAN [1]: 3.45 Percent Activity; MAX_MED [1]: 5.48 Percent Activity; Cell Count ACC (RUES2-GLR cells; Table S2, 48 h exposure): >200 µM; Cell Count % Max Inhibition (RUES2-GLR cells): 12.9966%; MAX_MEAN [2, 7]: 8.27 Percent Activity; MAX_MED [2, 8]: 7.58 Percent Activity; quickPredict TI (µM) [4]: 327,552 µM; quickPredict CV (H9 embryonic stem cells; cell viability): 246664 µM; quickPredict CV (µM) (H9 embryonic stem cells; [9]): 246,664 µM
NC(=O)NO [Hydroxyurea] | Negative | >200 | 0 | 0 | 0 | 0.733 | 0.69 | 74.9 | Positive | Teratogen | Pos | 1.5 | 0.557 | 237 |  |  |  |  |  |  | hit call designation (in words) [1]: false negative; DevTox % Max Inhibition [1]: 15.8672%; maximum observed effect level class (% max inhibition) ([1]; stratification of training set chemicals): weak (weak (0–20% max inhibition)); MAX_MEAN [1]: 17.2 Percent Activity; MAX_MED [1]: 15.9 Percent Activity; Cell Count ACC (RUES2-GLR cells; Table S2, 48 h exposure): 64.5432 µM; Cell Count % Max Inhibition (RUES2-GLR cells): 34.555%; DevTox-GLR Endo CC (RUES2-GLR cells; concentration at cell count cutoff, 48 h exposure): 64.54 µM; effect on cell count (in words) (RUES2-GLR cells; training set, 48 h exposure): significant cell loss that did not impact SOX17-positive populations; also recorded: significant decreases in cell count; MAX_MEAN [2, 7]: 13.7 Percent Activity; MAX_MED [2, 8]: 16 Percent Activity
CS(=O)(=O)OCCCCOS(C)(=O)=O [Busulfan] | Positive | 25.262 | 1 | 0 | 0 | 2.12 | 2.19 | 2.31 | Positive | Teratogen | Pos | 2.43 | 2.59 | 4.91 | 100 | 100 | 100 | 82.3 | 5.795 | 7.27 | AC50 ([1]; Homo sapiens, read-out: ga (winning model), tcpl plot AEID3094, gain parameter of winning curve fit (log concentration, µM axis), hit calls only (converted)): 38.9 µM; Emax ([1]; Homo sapiens, read-out: tp (winning model)): 101%; DevTox-GLR Endo ACC ([1]; activity concentration at cutoff, SOX17-positive cells, 48 h exposure): 25.26 µM; effect on cell count (in words) (RUES2-GLR cells): significant decreases in cell count; DevTox-GLR Endo CC (RUES2-GLR cells; human, 48 h): 5.79 µM; Emax [2, 14]: 12.6%; AC50 [6]: 145 µM; Emax [6]: 4.09%
CN(Cc1cnc2nc(N)nc(N)c2n1)c1ccc(C(=O)N[C@@H](CCC(=O)O)C(=O)O)cc1 [Methotrexate] | Negative | >200 | 0 | 0 | 1 | 1.26 | 1.19 | 0.059 | Positive | Teratogen | Pos | 0.917 | 0.899 | 0.062 | 24.6 | 22.4 | 24.6 | 44.6 | 0.3474 | 2.23 | hit call designation (in words) [1]: borderline calls; Emax ([1]; Homo sapiens, read-out: maximum observed effect level class (% max inhibition)): 20 to 80%; effect on cell count (in words) (RUES2-GLR cells): significant decreases in cell count; DevTox-GLR Endo CC (RUES2-GLR cells; human, 48 h): 0.35 µM; effect on cell count (in words) (RUES2-GLR cells; human, 48 h): significant cell loss that did not impact SOX17-positive populations; Emax [2, 14]: 2.87%; AC50 [6]: 0.0525 µM; Emax [6]: 0.771%
O=C(O)c1ccccc1O [Salicylic Acid] | Negative | >200 | 0 | 0 | 0 | 0.835 | 0.894 | 513 |  | Non-Teratogen | Neg | 0.533 | 0.494 | 1795 | 6.91 | 7.1 | 6.91 | 11.5 | >200 | 8.74 | Emax [2, 14]: 9.69%
